Reference: the NIST ThermoML archive (doi:10.1021/je200707b)

How the values were obtained:
[1] = refractive index (Na D-line) (dimensionless); xn = mol fraction of the nth substance listed; details: 298.15 K, 101.3 kPa, Liquid, Standard Abbe refractometry
[2] = xn = mol fraction of the nth substance listed; details: 101.3 kPa, Liquid; for viscosity: Falling or rolling sphere viscometry; for mass density: Vibrating tube method

CC(=O)O.CCCCN [butylammonium acetate] + CCO
[1]
Details | refractive index
x1 = 0.0319 | 1.3681
x1 = 0.0608 | 1.3731
x1 = 0.0999 | 1.3804
x1 = 0.1977 | 1.3965
x1 = 0.2965 | 1.4073
x1 = 0.4008 | 1.4152
x1 = 0.5005 | 1.4219
x1 = 0.6454 | 1.4292
x1 = 0.8019 | 1.436
x1 = 0.9009 | 1.4396

[2]
Details | mass density, 293.15 K [kg/m3] | mass density, 298.15 K [kg/m3] | mass density, 303.15 K [kg/m3] | mass density, 308.15 K [kg/m3] | mass density, 313.15 K [kg/m3] | viscosity, 293.15 K [mPa·s] | viscosity, 298.15 K [mPa·s] | viscosity, 303.15 K [mPa·s] | viscosity, 308.15 K [mPa·s] | viscosity, 313.15 K [mPa·s]
x1 = 0.0319 | 805.12 | 800.93 | 796.71 | 792.46 | 788.16 | 1.644 | 1.488 | 1.349 | 1.226 | 1.117
x1 = 0.0608 | 817.26 | 813.17 | 809.04 | 804.88 | 800.68 | 2.184 | 1.959 | 1.764 | 1.593 | 1.442
x1 = 0.0999 | 831.76 | 827.77 | 823.74 | 819.69 | 815.6 | 3.042 | 2.707 | 2.42 | 2.171 | 1.908
x1 = 0.1977 | 860.95 | 857.19 | 853.35 | 849.49 | 845.68 | 6.773 | 5.903 | 5.176 | 4.557 | 4.013
x1 = 0.2965 | 883.07 | 879.43 | 875.76 | 872.09 | 868.39 | 13.92 | 11.88 | 10.23 | 8.831 | 7.695
x1 = 0.4008 | 901.46 | 897.94 | 894.4 | 890.81 | 887.18 | 26.61 | 22.28 | 18.84 | 16.06 | 13.75
x1 = 0.5005 | 915.65 | 912.21 | 908.76 | 905.3 | 901.83 | 49.22 | 40.2 | 33.21 | 27.76 | 23.37
x1 = 0.6454 | 932.09 | 928.75 | 925.39 | 922.03 | 918.66 | 113.11 | 90.9 | 72.83 | 59.18 | 48.51
x1 = 0.8019 | 945.97 | 942.74 | 939.48 | 936.22 | 932.94 | 264.17 | 201.81 | 156.42 | 122.42 | 97.36
x1 = 0.9009 | 953.34 | 950.15 | 946.94 | 943.74 | 940.53 | 475.32 | 347.84 | 260.75 | 197.78 | 152.81

CC(=O)O.CCCCN [butylammonium acetate] + CCCO
[1]
Details | refractive index
x1 = 0.0315 | 1.3875
x1 = 0.0601 | 1.3912
x1 = 0.0977 | 1.3953
x1 = 0.198 | 1.4045
x1 = 0.3002 | 1.4122
x1 = 0.4021 | 1.4185
x1 = 0.497 | 1.4236
x1 = 0.6487 | 1.4305
x1 = 0.799 | 1.4362
x1 = 0.8981 | 1.4395

[2]
Details | mass density, 293.15 K [kg/m3] | mass density, 298.15 K [kg/m3] | mass density, 303.15 K [kg/m3] | mass density, 308.15 K [kg/m3] | mass density, 313.15 K [kg/m3] | viscosity, 293.15 K [mPa·s] | viscosity, 298.15 K [mPa·s] | viscosity, 303.15 K [mPa·s] | viscosity, 308.15 K [mPa·s] | viscosity, 313.15 K [mPa·s]
x1 = 0.0315 | 814.1 | 810.13 | 806.12 | 802.09 | 798.01 | 2.862 | 2.496 | 2.202 | 1.955 | 1.672
x1 = 0.0601 | 822.82 | 818.91 | 814.95 | 810.95 | 806.91 | 3.515 | 3.158 | 2.773 | 2.447 | 2.167
x1 = 0.0977 | 833.38 | 829.52 | 825.63 | 821.7 | 817.72 | 4.733 | 4.116 | 3.595 | 3.157 | 2.828
x1 = 0.198 | 857.48 | 853.76 | 850 | 846.22 | 842.42 | 8.602 | 7.371 | 6.367 | 5.493 | 4.77
x1 = 0.3002 | 877.71 | 874.1 | 870.46 | 866.8 | 863.11 | 17.5 | 14.77 | 12.51 | 10.66 | 9.154
x1 = 0.4021 | 894.7 | 891.19 | 887.65 | 884.1 | 880.52 | 31.54 | 26.08 | 22.23 | 18.48 | 15.72
x1 = 0.497 | 908.39 | 904.94 | 901.48 | 898.01 | 894.53 | 47.48 | 38.69 | 31.74 | 26.4 | 22.13
x1 = 0.6487 | 927.09 | 923.74 | 920.37 | 917 | 913.6 | 108.49 | 87.22 | 70.42 | 56.62 | 46.76
x1 = 0.799 | 942.52 | 939.27 | 936.01 | 932.73 | 929.43 | 244.69 | 186.83 | 148.78 | 116.88 | 93.14
x1 = 0.8981 | 951.47 | 948.25 | 945.03 | 941.83 | 938.61 | 445.2 | 326.53 | 244.83 | 186.41 | 144.84

CC(=O)O.CCCCN [butylammonium acetate] + CCCCO
[1]
Details | refractive index
x1 = 0.029 | 1.3999
x1 = 0.0583 | 1.4023
x1 = 0.1003 | 1.4053
x1 = 0.1981 | 1.4115
x1 = 0.2981 | 1.417
x1 = 0.399 | 1.4217
x1 = 0.497 | 1.4256
x1 = 0.6489 | 1.4314
x1 = 0.7984 | 1.4366
x1 = 0.9003 | 1.4399

[2]
Details | mass density, 293.15 K [kg/m3] | mass density, 298.15 K [kg/m3] | mass density, 303.15 K [kg/m3] | mass density, 308.15 K [kg/m3] | mass density, 313.15 K [kg/m3] | viscosity, 293.15 K [mPa·s] | viscosity, 298.15 K [mPa·s] | viscosity, 303.15 K [mPa·s] | viscosity, 308.15 K [mPa·s] | viscosity, 313.15 K [mPa·s]
x1 = 0.029 | 817.08 | 813.28 | 809.45 | 805.57 | 801.67 | 3.564 | 3.19 | 2.787 | 2.455 | 2.164
x1 = 0.0583 | 824.15 | 820.36 | 816.55 | 812.7 | 808.82 | 4.397 | 3.806 | 3.318 | 2.908 | 2.592
x1 = 0.1003 | 833.62 | 829.88 | 826.11 | 822.23 | 818.46 | 5.588 | 4.823 | 4.165 | 3.636 | 3.17
x1 = 0.1981 | 853.55 | 849.9 | 846.22 | 842.52 | 838.78 | 9.789 | 8.389 | 7.151 | 6.123 | 5.297
x1 = 0.2981 | 871.49 | 867.92 | 864.33 | 860.72 | 857.08 | 17.14 | 14.41 | 12.18 | 10.39 | 8.894
x1 = 0.399 | 887.71 | 884.21 | 880.69 | 877.17 | 873.62 | 28.33 | 23.48 | 19.6 | 16.5 | 14
x1 = 0.497 | 901.99 | 898.53 | 895.09 | 891.62 | 888.15 | 50.23 | 41.01 | 33.21 | 28.45 | 23.98
x1 = 0.6489 | 921.84 | 918.48 | 915.12 | 911.75 | 908.37 | 107.74 | 86.03 | 69.14 | 56.31 | 45.89
x1 = 0.7984 | 939.21 | 935.95 | 932.68 | 929.4 | 926.1 | 225.04 | 170.61 | 138.1 | 109.79 | 87.65
x1 = 0.9003 | 949.8 | 946.58 | 943.37 | 940.16 | 936.93 | 389.54 | 287.99 | 216.86 | 167.15 | 129.84
